Experimental data published in patent publication US10772917B2, “Pancreatic endocrine progenitor cell therapies for the treatment of obesity and type 2 diabetes (T2D)” (THE UNIVERSITY OF BRITISH COLUMBIA, priority 2015, dated 2020).

Tests used:
[1] = tested on: HFD-fed mice; test: Mouse and human C-peptide after intraperitoneal glucose challenge (Example 6); format: in vivo, mouse (SCID-beige); settings: drug plus cell transplant vs respective sham controls; for reduction of fasting mouse C-peptide levels: 4 weeks post-transplant; for fasting mouse C-peptide levels: 16 weeks post-transplant
Text: (§1) The procedure used for transplantation of macro-encapsulated pancreatic progenitor cells was as follows. Similar transplantation of macro-encapsulated pancreatic endocrine precursor cells or insulin-producing cells was described in Rezania et al. 2014, Pagliucca et al. 2014 and Agulnick A. D. et al. 2015. All mice were anaesthetized with inhalable isoflurane and transplant recipients received ˜5×10^6 hESC-derived pancreatic progenitor cells subcutaneously (s.c.) within a 20 1 TheraCyte™ macroencapsulation device (TheraCyte Inc.™, Laguna Hills, Calif.) on the right flank, as previously described (Bruin et al., 2013). Sham mice received the same surgical procedure, but no macroencapsulation device was implanted. In the first cohort, mice were randomly assigned to receive either a cell transplant (Tx, n=7 per diet) or sham surgery (sham, n=4 per diet) after 7 weeks of LFD or HFD feeding. In the second cohort, HFD-fed mice (+/−drug treatment) received either a transplant (n=8 per group) or sham surgery (n=8 per group) 1 week after administration of the antidiabetic drugs. LFD controls all received sham surgery.
(§2) Glucose tolerance tests (GTTs) were performed following a 6-hour morning fast and administration of glucose by oral gavage or intraperitoneal (i.p.) injection (2 glucose/kg BW, 30% solution; Vétoquinol™, Lavaltrie, QC). Glucose-stimulated human C-peptide secretion from engrafted cells was assessed following an overnight fast and an i.p. injection of glucose (2 g/kg). Insulin tolerance tests (ITTs) were performed following a 4-hour morning fast and administration of human synthetic insulin (0.7 IU/kg body weight; Novolin Ge™ Toronto, Novo Nordisk™, Mississaugua, Canada). […] Blood glucose levels were measured using a handheld glucometer (Lifescan™; Burnaby, Canada). Mouse hormone and lipid profiles were assessed in plasma using the following kits: leptin (Mouse Leptin ELISA, Crystal ChemInc.™, Downers Grove, Ill.), insulin (Ultrasensitive Mouse Insulin ELISA, Alpco Diagnostics™, Salem, N.H.), C-peptide (Mouse C-peptide ELISA, Alpco Diagnostics™), triglycerides (Serum Triglyceride kit, Sigma-Aldrich™), free fatty acids (NEFA-HR(2) kit, Wako Chemical™, Richmond, Va.) and cholesterol (Cholesterol E™ kit, Wako Chemical™). Hormone secretion from engrafted hESC-derived cells was assessed by measuring plasma human C-peptide (C-peptide ELISA, 80-CPTHU-E01.1; Alpco Diagnostics™) and human insulin and glucagon levels (K15160C-2; Meso Scale Discovery™, Gaithersburg, Md.). Hemoglobin A1c (HbA1c) levels were measured with a Siemens DCA 200 Vantage Analyzer™ (Siemens Healthcare Diagnostics™, Tarrytown, N.Y.) from whole blood collected from the saphenous vein with EDTA as an anticoagulant. […]

[2] = tested on: HFD-fed mice; test: Fasting blood glucose and oral glucose tolerance test in 60% fat diet mice given antidiabetic drug with or without cell transplant (Example 6); format: in vivo, mouse (SCID-beige); settings: for glucose tolerance (oral glucose tolerance test): HFD-fed mice, cell therapy combined with the drug
Description: (§3) In the second cohort, mice were placed on either the 10% fat control diet (D12450K; n=8) for the duration of the study of 60% fat diet (D12492; n=64) for 6 weeks, followed by one of the following treatment regimens for the remainder of the study (n=16 per group): (1) 60% fat diet with no drug (D12492), (2) 60% fat diet containing rosiglitazone (18 mg/kg diet or ˜3 mg/kg BW per day; Cayman Chemical™; Research Diets™ custom diet formulation D08121002), (3) 60% fat diet containing sitagliptin (4 g/kg diet or ˜750 mg/kg BW per day; sitagliptin phosphate monohydrate, BioVision™; Research Diets™ custom diet formulation D08062502R), or (4) 60% fat diet (D12492) and metformin (1,1-dimethylbiguanide hydrochloride) in drinking water (1.25 mg/ml or ˜250 mg/kg BW per day).
as §1
All metabolic analyses were performed in conscious, restrained mice and blood samples were collected via the saphenous vein. BW and blood glucose levels were assessed regularly throughout each study following a 4-hr morning fast. For all other metabolic tests, blood was collected after fasting (time 0) and at the indicated time points following administration of various secretagogues.
as §2, with “g/kg).” for “g/kg). Insulin tolerance tests (ITTs) were performed following a 4-hour morning fast and administration of human synthetic insulin (0.7 IU/kg body weight; Novolin Ge™ Toronto, Novo Nordisk™, Mississaugua, Canada).”, “Md.).” for “Md.). Hemoglobin A1c (HbA1c) levels were measured with a Siemens DCA 200 Vantage Analyzer™ (Siemens Healthcare Diagnostics™, Tarrytown, N.Y.) from whole blood collected from the saphenous vein with EDTA as an anticoagulant.”

[3] = tested on: HFD-fed mice; test: Body weight, epididymal fat pad weight and leptin in 60% fat diet mice given antidiabetic drug with or without cell transplant (Example 6); format: in vivo, mouse (SCID-beige); settings: for circulating leptin levels: 60% fat diet, drug combined with cell transplant vs respective sham controls on the same drug, 20 weeks post-transplant
Text: Male SCID-beige mice (C.B-Igh-1b/GbmsTac-Prkdcscid-LystbgN7, 8-10 weeks old; Taconic™) were maintained on a 12 hr light/dark cycle throughout the study. All experiments were approved by the UBC Animal Care Committee and carried out in accordance with the Canadian Council on Animal Care guidelines.
as §3
as §1, with “In the second cohort, HFD-fed mice (+/−drug treatment) received either a transplant (n=8 per group) or sham surgery (n=8 per group) 1 week after administration of the antidiabetic drugs. LFD controls all received sham surgery.” left out
All metabolic analyses were performed in conscious, restrained mice and blood samples were collected via the saphenous vein. BW and blood glucose levels were assessed regularly throughout each study following a 4-hr morning fast. […]
Glucose tolerance tests (GTTs) were performed following a 6-hour morning fast and administration of glucose by oral gavage or intraperitoneal (i.p.) injection (2 glucose/kg BW, 30% solution; Vétoquinol™, Lavaltrie, QC). Glucose-stimulated human C-peptide secretion from engrafted cells was assessed following an overnight fast and an i.p. injection of glucose (2 g/kg). […] Blood glucose levels were measured using a handheld glucometer (Lifescan™; Burnaby, Canada). […]

[4] = tested on: pancreatic regeneration; settings: ductal ligation model; cited from earlier work
[5] = under the conditions tested; cited from earlier work
[6] = 12 weeks post-transplant, drug with the cell therapy

Compound	reduction of fasting mouse C-peptide levels [1]	fasting mouse C-peptide levels [1]	glucose tolerance (oral glucose tolerance test) ([2]; 12 weeks post-transplant)	circulating leptin levels [3]	short term effect [5]	further results
N[C@@H](CC(=O)N1CCn2c(nnc2C(F)(F)F)C1)Cc1cc(F)c(F)cc1F [sitagliptin, sitagliptin phosphate monohydrate]	not yet evident	significantly reduced	significantly improved	significantly reduced	–	glycemic control during an oral glucose challenge compared with LFD controls [2, 6]: indistinguishable; peak glucose level at 15 minutes post-gavage compared with LFD controls [2, 6]: marginally higher; glucose tolerance ([2]; drug on its own, without cell transplant): mild reduction in glucose tolerance; weight loss ([3]; cells transplanted in combination with the drug, compared with other groups): the most weight loss was observed
CN(CCOc1ccc(CC2SC(=O)NC2=O)cc1)c1ccccn1 (stereo not shown) [rosiglitazone]	–	–	–	no effect	–	–
C=CC[C@@H]1/C=C(\C)C[C@H](C)C[C@H](OC)[C@H]2O[C@@](O)(C(=O)C(=O)N3CCCC[C@H]3C(=O)O[C@H](/C(C)=C/[C@@H]3CC[C@@H](O)[C@H](OC)C3)[C@H](C)[C@@H](O)CC1=O)[C@H](C)C[C@@H]2OC [tacrolimus]	–	–	–	–	–	pancreatic regeneration [4]: block pancreatic regeneration
CN(C)C(=N)NC(=N)N.Cl [metformin, 1,1-dimethylbiguanide hydrochloride]	not yet evident	significantly reduced	significantly improved	significantly reduced	–	–
exendin-4: anti-diabetic medicine examined earlier for short term effect (Bruin et al. 2013)	–	–	–	–	without significant effect	–
insulin: anti-diabetic medicine examined earlier for short term effect (Bruin et al. 2013)	–	–	–	–	without significant effect	–
